Source: patent publication US20080194653A1, “Therapeutic Agent For Solid Tumor” (KYOWA HAKKO KOGYO CO., LTD., priority 2005, published 2008)

Key:
[1] = tested on: human liver cancer Hep G2 cells; experiment: Cell growth inhibition test against liver cancer cells (XTT); assay type: cell-based; conditions: HepG2, read-out: GI50 value (concentration of 50% growth inhibition)
Method: (§1) A549 cells (1000 cells/well), SK-OV-3 cells (2000 cells/well), or HCT 116 cells (1000 cells/well) were seeded in each well of 96-well plates (Nunc, catalog No. 167008), and cultured overnight. Test compounds diluted stepwise were added, and the cells were further cultured for 72 hours (final volume: 100 μL/well). Fifty μL XTT labeling mixture of Cell Proliferation Kit II (XTT) (Roche Diagnostics, catalog No. 1465015) was added to each well, and the plates were incubated at 37° C. After 1 to 3 hours, absorbance at 490 nm (reference wavelength: 655 nm) was measured with a plate reader (Molecular Device, SpectraMax 340PC^384). Growth ratios of the cells in the wells treated with the test compounds were calculated based on the growth ratio of the cells in the control well treated with solvent (dimethyl sulfoxide (DMSO)) for 72 hours, which was defined as 100%.
(§2) As cancer cell lines, human pancreatic cancer MIA PaCa-2 cells (JCRB No. 0070), human cervical cancer HeLa cells (ATCC No. CCL-2), human breast cancer MDA-MB-468 cells (ATCC No. HTB-132), human prostate cancer DU 145 cells (ATCC No. HTB-81), human skin cancer SK-MEL-28 cells (ATCC No. HTB-72), human head and neck cancer KB cells (JCRB No. 9027), human renal cancer 786-0 cells (ATCC No. CRL-1932), and human liver cancer Hep G2 cells (ATCC No. HB-8065) were used. The cells were cultured at 37° C. in a 5% carbon dioxide atmosphere (except for the human breast cancer MDA-MB-468 cells, which were cultured under the condition at 37° C.) by using the mediums mentioned below, respectively.
(§3) In the same manner as that in Test Example 1, the cells were seeded (500 to 4000 cells/well, respectively) in each well of 96-well plates (Nunc, catalog No. 167008), and growth ratios of the cells treated with test compounds were calculated. The measurement of absorbance was performed at 1.5 to 3 hours after the addition of the XTT labeling mixture.

[2] = tested on: human colon cancer HCT 116 cells; experiment: Cell growth inhibition test against colon cancer cells (XTT); assay type: cell-based; conditions: read-out: GI50 value (concentration of 50% growth inhibition), 72 hours
Method: (§4) As cancer cell lines, human lung cancer A549 cells (ATCC No. CCL-185), human ovarian cancer SK-OV-3 cells (ATCC No. HTB-77), and human colon cancer HCT 116 cells (ATCC No. CCL-247) were used. For the culture of A549 cells, Nutrient Mixture F-12K medium (Invitrogen, catalog No. 21127-022) containing 10% fetal bovine serum (Invitrogen, catalog No. 10099-141), 100 units/mL penicillin (Invitrogen, catalog No. 15140-122), and 100 μg/mL streptomycin (Invitrogen, catalog No. 15140-122) was used. For the culture of SK-OV-3 cells and HCT 116 cells, McCoy's 5A medium (Invitrogen, catalog No. 16600-082) containing 10% fetal bovine serum (Invitrogen, catalog No. 10099-141), 100 units/mL penicillin (Invitrogen, catalog No. 15140-122), and 100 μg/mL streptomycin (Invitrogen, catalog No. 15140-122) was used. The cells were cultured at 37° C. in a 5% carbon dioxide atmosphere.
as §1

[3] = tested on: human head and neck cancer KB cells; experiment: Cell growth inhibition test against head and neck cancer cells (XTT); assay type: cell-based; conditions: read-out: GI50 value (concentration of 50% growth inhibition)
Method: as §1, §2, §3

[4] = tested on: human cervical cancer HeLa cells; experiment: Cell growth inhibition test against cervical cancer cells (XTT); assay type: cell-based; conditions: read-out: GI50 value (concentration of 50% growth inhibition)
Method: as §1, §2, §3

[5] = tested on: human pancreatic cancer MIA PaCa-2 cells; experiment: Cell growth inhibition test against pancreatic cancer cells (XTT); assay type: cell-based; conditions: read-out: GI50 value (concentration of 50% growth inhibition)
Method: as §1, §2, §3

[6] = tested on: human ovarian cancer SK-OV-3 cells; experiment: Cell growth inhibition test against ovarian cancer cells (XTT); assay type: cell-based; conditions: read-out: GI50 value (concentration of 50% growth inhibition), 72 hours
Method: as §4, §1

[7] = target: T1, recombinant human Eg5 motor domain protein (Homo sapiens, UniProt P52732); experiment: Eg5 enzyme inhibition test (ATPase activity); assay type: biochemical; conditions: for IC50: 30° C., 30 minutes, absorbance at 360 nm, read-out: Inhibition ratios (IC50) on the ATPase activity of Eg5
T1 construct: A plasmid expressing the motor domain of human Eg5 was constructed; made in house; host or cells: Escherichia coli BL21 (DE3)
T1 sequence (P52732 18-359 limits assumed): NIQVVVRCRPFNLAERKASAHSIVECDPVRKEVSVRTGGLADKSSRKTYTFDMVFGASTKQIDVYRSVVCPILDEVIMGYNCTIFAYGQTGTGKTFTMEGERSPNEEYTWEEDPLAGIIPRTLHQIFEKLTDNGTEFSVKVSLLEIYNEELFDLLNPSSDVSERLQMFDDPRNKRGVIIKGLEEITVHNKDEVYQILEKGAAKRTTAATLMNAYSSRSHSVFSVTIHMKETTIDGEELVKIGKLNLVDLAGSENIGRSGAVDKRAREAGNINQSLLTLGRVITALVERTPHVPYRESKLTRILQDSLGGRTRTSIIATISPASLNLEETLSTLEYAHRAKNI
Method: A recombinant human Eg5 motor domain protein was prepared by referring to the literature [Biochemistry, Vol. 35, p. […] A plasmid expressing the motor domain of human Eg5 was constructed, and transformed into Escherichia coli BL21 (DE3). The transformant was cultured at 25° C., and when the OD600 reached 0.74, isopropyl-β-D-thiogalactoside was added at a final concentration of 0.5 mmol/L. The transformant was further cultured for 4 hours, and then the culture medium was centrifuged to collect the cells. The cells were suspended in a buffer and ultrasonicated, and then the sonicated solution was centrifuged to recover the supernatant. The supernatant was purified by cation exchange column chromatography to obtain a partially purified sample. Furthermore, the partially purified sample was purified by gel filtration column chromatography to obtain a finally purified sample.
Measurement of the ATPase activity of Eg5 was carried out by referring to the literatures [EMBO Journal, Vol. 13, p. […] Solution A was dispensed into each well of a 96-well plate as 45 μL portions. Solution B was used to serially dilute a test compound. The diluted test compound solutions in a volume of 30 μL were mixed with Solution A added beforehand in each well of the 96-well plate to start the enzymatic reaction. The enzymatic reaction was performed at 30° C. for 30 minutes. […] The relative activity was calculated to calculate IC50 value.

[8] = tested on: human renal cancer 786-0 cells; experiment: Cell growth inhibition test against renal cancer cells (XTT); assay type: cell-based; conditions: read-out: GI50 value (concentration of 50% growth inhibition)
Method: as §1, §2, §3

[9] = tested on: human breast cancer MDA-MB-468 cells; experiment: Cell growth inhibition test against breast cancer cells (XTT); assay type: cell-based; conditions: read-out: GI50 value (concentration of 50% growth inhibition)
Method: as §1, §2, §3

[10] = tested on: human skin cancer SK-MEL-28 cells; experiment: Cell growth inhibition test against skin cancer cells (XTT); assay type: cell-based; conditions: read-out: GI50 value (concentration of 50% growth inhibition)
Method: as §1, §2, §3

[11] = tested on: human lung cancer A549 cells; experiment: Cell growth inhibition test against lung cancer cells (XTT); assay type: cell-based; conditions: read-out: GI50 value (concentration of 50% growth inhibition), 72 hours
Method: as §4, §1

[12] = tested on: human prostate cancer DU 145 cells; experiment: Cell growth inhibition test against prostate cancer cells (XTT); assay type: cell-based; conditions: read-out: GI50 value (concentration of 50% growth inhibition)
Method: as §1, §2, §3

GI50 [1] [µM] | GI50 [2] [µM] | GI50 [3] [µM] | GI50 [4] [µM] | GI50 [5] [µM] | GI50 [6] [µM] | IC50 [7] [µM] | GI50 [8] [µM] | GI50 [9] [µM] | GI50 [10] [µM] | GI50 [11] [µM] | GI50 [12] [µM] | melting point [°C] | SMILES | Inhibition of the ATPase activity of Eg5 (in words) [7]
< 10 | < 0.1 | < 10 | < 10 | < 10 | < 10 | < 0.1 | < 10 | < 10 | < 10 | < 10 | < 10 | 204 to 206 | CC(C)(C)C(=O)NC1=NN(C(=O)C(C)(C)C)C(CCNS(C)(=O)=O)(c2ccccc2)S1 (single isomer, unassigned; (-)) [Compound a, (−)-N-[4-(2,2-Dimethylpropionyl)-5-(2-methanesulfonylaminoethyl)-5-phenyl-4,5-dihydro-1,3,4-thiadiazol-2-yl]-2,2-dimethylpropanamide] | inhibited the ATPase activity of Eg5 in a concentration-dependent manner
< 10 | < 0.1 | < 10 | < 10 | < 10 | < 10 | < 0.1 | < 10 | < 10 | < 10 | < 10 | < 10 | 188 to 191 | CCC(=O)N1N=C(N2CCCC2=O)SC1(CCNS(C)(=O)=O)c1ccccc1 (single isomer, unassigned; (-)) [Compound e, (−)-N-{2-[5-(2-Oxopyrrolidin-1-yl)-2-phenyl-3-propionyl-2,3-dihydro-1,3,4-thiadiazol-2-yl]ethyl}methanesulfonamide] | inhibited the ATPase activity of Eg5 in a concentration-dependent manner
< 10 | < 0.1 | < 10 | < 10 | < 10 | < 10 | – | < 10 | < 10 | < 10 | < 10 | < 10 | 92 to 95 | CN(C)CCCS(=O)(=O)NCC1(c2ccccc2)SC(NC(=O)C(C)(C)C)=NN1C(=O)C(C)(C)C (single isomer, unassigned; (-)) [Compound n, (−)-N-[5-(3-Dimethylaminopropanesulfonylaminomethyl)-4-(2,2-dimethylpropionyl)-5-phenyl-4,5-dihydro-1,3,4-thiadiazol-2-yl]-2,2-dimethyl-propanamide] | –
